From patent publication US20240091210A1, “USE OF 5-[[4-[2-[5-ACETYLPYRIDIN-2-YL]ETHOXY]BENZYL]-1,3-THIAZOLIDINE-2,4-DIONE AND ITS SALTS” (Minoryx Therapeutics S.L., priority 2018, published 2024)
Like-named read-outs stand apart in the source and are kept apart here.

Experiments:
[1] = Multiple ascending dose (MAD) study in human subjects; format: in vivo; conditions: for Cmax: in vivo, steady state day 8, human, read-out: mean Cmax ss
[2] = test system: wild type MDA MB231 cells; experiment: Seahorse oxygen consumption rate (OCR), wild type MDA MB231 cells; format: cell-based
Procedure: (§1) To determine whether MIN-102 has any effect on pyruvate-mediated mitochondrial respiration, the extracellular flux analyzer Seahorse was used as described in Compan et al.. Seahorse experiments were performed in the following cell lines: HeLa (Cervix cancer cells), A549 (lung cancer cells), wild type MDA MB 231, and MDA MB 231 in which MPC2 has been deleted, leading to inactivation of the MPC (MDA MB231 KO). MDA MB231 cells are epithelial breast cancer cells. Cells were incubated with increasing concentrations of the compounds for one hour at 37° C. before oxygen consumption rate (OCR) measurements. The Seahorse analyzer allowed to measure basal and maximal respiration measured upon depolarization with 1 μM CCCP. […] The KO cells have been deleted of the MPC2 gene and therefore they display no MPC activity. The top panel show a representative experiment of either wild type (WT) or KO cell lines. […] OCR values are expressed as ratios of OCR in the presence of different concentrations of the tested compound over the OCR in PBS alone.

MDA MB231 KO cells = experiment: Seahorse oxygen consumption rate (OCR), MDA MB231 KO cells (MPC2 deleted); format: cell-based; conditions: MPC activity genetically deleted
Procedure: as §1

adiponectin = experiment: Plasma adiponectin levels in rats (ELISA), measure of PPAR gamma engagement; format: in vivo, Sprague Dawley rats; conditions: 54 mg/Kg/day for 7 days, plasma 1 h after last dose, vs vehicle
Procedure: Evaluation of effect of MIN-102 on adiponectin was performed in Sprague Dawley wild type rats as a measure of PPAR gamma engagement. The rats were treated for 7 days with increasing doses of MIN-102 at 54 mg/Kg/day. Plasma were obtained at 1 h after the last MIN-102 administration. Adiponectin levels were measured by ELISA. Results were represented as mean+standard error of the mean of n=8. Data were analyzed by Kruskal-Wallis followed by the Dunn post-hoc test versus the vehicle group (**** p<0.0001).

[3] = test system: MCD diet NASH mouse model; experiment: Methionine Choline Deficient (MCD) diet NASH mouse model; format: in vivo, C57BL6/J male mice; conditions: 62.5 mg/kg BID oral, 7 weeks
Procedure: The preventive effects of MIN-102 was evaluated in a 7-week Methionine Choline Deficient (MCD) diet NASH mouse model (Verdelho Machado et al.). After the acclimation period, C57BL6/J male mice (n=20) were weighed and randomized into 2 homogenous treatment groups based on body weight (n=10/group), put on a MCD diet, and treated BID orally with vehicle or MIN-102 for 7 weeks. MIN-102 was dosed 62.5 mg/kg BID orally by gavage. After the acclimation period, C57BL6/J male mice (n=20) were weighed and randomized into 2 homogenous treatment groups based on body weight (n=10/group), put on a MCD diet, and treated BID orally with a vehicle or MIN-102 (125 mg/Kg/day) for 7 weeks. Body weight was measured 3 times/week until the end of the experimental phase. At 7 weeks of diet/treatment, mice were weighed and treated at ˜08:00 am in the morning, then bled (maximal volume/EDTA) at ˜1:00 pm. Plasma was then immediately isolated and stored at −80° C. prior to assay plasma ALT and AST. The plasma volume left over was stored at −80° C. for eventual additional analysis. After blood collection, the mice were sacrificed by cervical dislocation under isoflurane anesthesia and exsanguinated with sterile saline. A NAFLD scoring system (NAS) adapted from Kleiner et al. (Hepatology. 41(6):1313-1321 (2005)) using the criteria described in the Table 1 below: Several other histopathological observations described in clinical human cases and originally reported in the NAS scoring system published by Kleiner et al. were not observed in this animal study, such as lipogranuloma, acidophil bodies, megamitochondria, and pigmented macrophages. Therefore, it was elected not to include them in the scoring system described above. An individual mouse NAS total score was calculated for each animal by summing up the score for (1) hepatocellular steatosis, (2) liver inflammation, (3) lobular fibrosis, and (4) hepatocyte ballooning. Histology analysis was performed (oil red O, H&E and Sirius Red staining) for NAFLD scoring system (NAS) for liver steatosis, inflammation, fibrosis and hepatocyte ballooning.

[4] = Minimal effective exposure in mice (dose calculation); format: in vivo; conditions: said to correspond to 50 mg/kg
Procedure: It can be assumed that dose-exposure is linear. The minimal effective exposure of 5-[[4-[2-[5-(1-hydroxyethyl)pyridin-2-yl]ethoxy]phenyl]methyl]-1,3-thiazolidine-2,4-dione hydrochloride is 130 μg·h/mL in mice which corresponds to administration of 50 mg/kg of 5-[[4-[2-[5-(1-hydroxyethyl)pyridin-2-yl]ethoxy]phenyl]methyl]-1,3-thiazolidine-2,4-dione hydrochloride to mice. It follows that the dose to achieve this exposure in mice is […].

- change in clearance with time ([1]; 135 mg and 270 mg, human): no change in clearance with time
- Cmax ([1]; 135 mg): 9.49 µg/mL
- Cmax ([1]; 270 mg): 17.2 µg/mL
- Cmin ss associated with the target AUCss ([1]; target AUCss 200 μg·h/mL, line of best fit of day 8 Cmin ss vs AUCss): 5.716 µg/mL
SMILES: CC(O)c1ccc(CCOc2ccc(CC3SC(=O)NC3=O)cc2)nc1.Cl (racemic) [MIN-102, 5-[[4-[2-[5-(1-hydroxyethyl)pyridin-2-yl]ethoxy]phenyl]methyl]-1,3-thiazolidine-2,4-dione hydrochloride]
- effect on oxygen consumption [2]: inhibits oxygen consumption in a MPC dependent manner
- effect on oxygen consumption (MDA MB231 KO cells): does not inhibit oxygen consumption
- plasma adiponectin levels (adiponectin): significantly increased
- hepatic cholesterol levels [3]: did not show a change
- liver inflammation [3]: total disappearance
- body weight loss ([3]; day 14 to day 50, vs vehicle): less severe decline in body weight loss
- oil red o staining % ([3]; vs vehicle, p<0.001): extremely low
- reduction in hepatic triglycerides levels ([3]; vs vehicle, p<0.001): 92%
- steatosis score ([3]; vs vehicle, p<0.001): blunted
- reduction of plasma ALT level ([3]; vs vehicle, p<0.01): 78%
- reduction of plasma AST level ([3]; vs vehicle, p<0.01): 55%
- mean NAS group score ([3]; vehicle 3.40±0.3, p<0.001): 0.44±01
- minimal effective exposure [4]: 130 µg·h/mL
